Source: ChEMBL document CHEMBL1137234, “Correlation between brain/plasma ratios and efficacy in neuropathic pain models of selective metabotropic glutamate receptor 1 antagonists” (Bioorg Med Chem Lett, 2006)
pIC50: −log10 of the molar value.

What was measured:
[1] = target: Metabotropic glutamate receptor 5 (Rattus norvegicus, UniProt P31424); assay: Antagonist activity at rat mGluR5 expressed in 1321N1 cells; type: functional, cell-based
[2] = target: Metabotropic glutamate receptor 1 (Rattus norvegicus, UniProt P23385); assay: Antagonist activity at rat mGluR1 expressed in 1321N1 cells; type: functional, cell-based
Chain of Metabotropic glutamate receptor 1 (P23385 whole entry): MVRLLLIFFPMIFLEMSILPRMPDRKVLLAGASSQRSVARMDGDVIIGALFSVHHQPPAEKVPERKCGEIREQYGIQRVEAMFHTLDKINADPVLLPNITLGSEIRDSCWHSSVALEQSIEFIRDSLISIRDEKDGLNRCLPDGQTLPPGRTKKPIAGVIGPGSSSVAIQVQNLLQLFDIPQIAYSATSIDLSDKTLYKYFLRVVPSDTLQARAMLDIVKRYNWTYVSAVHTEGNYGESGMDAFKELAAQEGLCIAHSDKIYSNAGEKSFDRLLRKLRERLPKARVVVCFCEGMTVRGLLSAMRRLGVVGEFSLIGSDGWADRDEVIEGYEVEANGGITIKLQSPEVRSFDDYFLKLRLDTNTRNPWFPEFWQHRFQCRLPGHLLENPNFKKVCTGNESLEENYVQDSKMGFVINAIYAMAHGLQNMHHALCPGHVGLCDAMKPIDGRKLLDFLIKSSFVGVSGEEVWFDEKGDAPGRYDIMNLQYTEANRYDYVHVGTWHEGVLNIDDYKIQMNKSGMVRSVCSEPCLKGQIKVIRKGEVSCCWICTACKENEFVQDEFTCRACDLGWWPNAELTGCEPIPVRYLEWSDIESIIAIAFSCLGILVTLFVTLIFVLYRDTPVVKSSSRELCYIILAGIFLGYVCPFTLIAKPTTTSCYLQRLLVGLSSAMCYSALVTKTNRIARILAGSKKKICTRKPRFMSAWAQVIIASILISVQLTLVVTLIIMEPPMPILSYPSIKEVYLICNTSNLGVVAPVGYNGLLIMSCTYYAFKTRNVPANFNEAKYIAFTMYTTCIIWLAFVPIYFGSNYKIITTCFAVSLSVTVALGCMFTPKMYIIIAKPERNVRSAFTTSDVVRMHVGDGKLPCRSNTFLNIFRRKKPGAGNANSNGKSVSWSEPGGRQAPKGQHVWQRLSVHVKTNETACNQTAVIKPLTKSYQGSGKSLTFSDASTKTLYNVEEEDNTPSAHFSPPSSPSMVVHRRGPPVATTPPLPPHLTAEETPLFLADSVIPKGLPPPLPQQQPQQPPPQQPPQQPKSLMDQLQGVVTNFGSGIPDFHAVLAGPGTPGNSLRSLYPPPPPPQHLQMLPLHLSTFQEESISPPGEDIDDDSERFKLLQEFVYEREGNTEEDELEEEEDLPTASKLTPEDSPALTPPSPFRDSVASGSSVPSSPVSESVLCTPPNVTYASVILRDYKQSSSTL

[3] = tested on: Rattus norvegicus; assay: Efficacy in rat Chung spinal nerve L5/L6 ligation pain model after 30 mins at 100 umol/kg, ip; type: functional
[4] = tested on: Rattus norvegicus; assay: Efficacy in ip dosed rat Chung spinal nerve L5/L6 ligation pain model after 30 mins; type: functional; conditions: 0.5 h
[5] = tested on: Rattus norvegicus; assay: Drug level in rat brain at 30 umol/kg, ip; type: ADME, organism-based; conditions: in vivo
[6] = organism: Rattus norvegicus; assay: Protein binding in rat brain; type: ADME, organism-based; conditions: in vivo
[7] = organism: Rattus norvegicus; assay: Free drug level in rat brain; type: ADME, organism-based; conditions: in vivo
[8] = target: Metabotropic glutamate receptor 4 (Homo sapiens, UniProt Q14833); assay: Antagonist activity at human mGluR4 expressed in 1321N1 cells; type: functional, cell-based
Chain of Metabotropic glutamate receptor 4 (Q14833 whole entry): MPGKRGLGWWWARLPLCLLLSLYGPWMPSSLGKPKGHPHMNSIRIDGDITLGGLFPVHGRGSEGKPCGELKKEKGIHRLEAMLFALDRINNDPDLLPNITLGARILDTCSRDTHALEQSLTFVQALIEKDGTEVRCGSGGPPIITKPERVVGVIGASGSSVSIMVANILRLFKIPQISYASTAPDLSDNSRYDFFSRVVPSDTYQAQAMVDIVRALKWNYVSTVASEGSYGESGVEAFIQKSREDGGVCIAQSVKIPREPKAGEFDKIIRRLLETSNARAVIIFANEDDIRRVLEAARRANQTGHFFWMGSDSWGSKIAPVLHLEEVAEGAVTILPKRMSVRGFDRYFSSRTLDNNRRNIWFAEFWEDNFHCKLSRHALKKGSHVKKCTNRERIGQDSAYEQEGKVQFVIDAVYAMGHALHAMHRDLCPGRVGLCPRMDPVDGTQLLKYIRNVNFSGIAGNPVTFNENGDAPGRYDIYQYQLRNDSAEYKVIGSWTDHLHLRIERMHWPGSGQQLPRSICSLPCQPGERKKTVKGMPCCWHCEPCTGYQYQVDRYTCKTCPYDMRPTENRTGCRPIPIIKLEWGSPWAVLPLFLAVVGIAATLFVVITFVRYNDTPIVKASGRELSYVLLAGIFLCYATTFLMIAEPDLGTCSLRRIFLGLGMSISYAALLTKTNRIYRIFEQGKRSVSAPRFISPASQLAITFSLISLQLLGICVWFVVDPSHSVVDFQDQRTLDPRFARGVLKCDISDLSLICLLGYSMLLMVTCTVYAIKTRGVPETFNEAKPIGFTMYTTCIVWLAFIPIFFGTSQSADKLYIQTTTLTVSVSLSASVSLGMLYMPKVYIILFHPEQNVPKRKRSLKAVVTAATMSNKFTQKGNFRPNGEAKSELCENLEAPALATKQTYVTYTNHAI

[9] = target: Metabotropic glutamate receptor 2 (Homo sapiens, UniProt Q14416); assay: Antagonist activity at human mGluR2 expressed in 1321N1 cells; type: functional, cell-based
Chain of Metabotropic glutamate receptor 2 (Q14416 whole entry): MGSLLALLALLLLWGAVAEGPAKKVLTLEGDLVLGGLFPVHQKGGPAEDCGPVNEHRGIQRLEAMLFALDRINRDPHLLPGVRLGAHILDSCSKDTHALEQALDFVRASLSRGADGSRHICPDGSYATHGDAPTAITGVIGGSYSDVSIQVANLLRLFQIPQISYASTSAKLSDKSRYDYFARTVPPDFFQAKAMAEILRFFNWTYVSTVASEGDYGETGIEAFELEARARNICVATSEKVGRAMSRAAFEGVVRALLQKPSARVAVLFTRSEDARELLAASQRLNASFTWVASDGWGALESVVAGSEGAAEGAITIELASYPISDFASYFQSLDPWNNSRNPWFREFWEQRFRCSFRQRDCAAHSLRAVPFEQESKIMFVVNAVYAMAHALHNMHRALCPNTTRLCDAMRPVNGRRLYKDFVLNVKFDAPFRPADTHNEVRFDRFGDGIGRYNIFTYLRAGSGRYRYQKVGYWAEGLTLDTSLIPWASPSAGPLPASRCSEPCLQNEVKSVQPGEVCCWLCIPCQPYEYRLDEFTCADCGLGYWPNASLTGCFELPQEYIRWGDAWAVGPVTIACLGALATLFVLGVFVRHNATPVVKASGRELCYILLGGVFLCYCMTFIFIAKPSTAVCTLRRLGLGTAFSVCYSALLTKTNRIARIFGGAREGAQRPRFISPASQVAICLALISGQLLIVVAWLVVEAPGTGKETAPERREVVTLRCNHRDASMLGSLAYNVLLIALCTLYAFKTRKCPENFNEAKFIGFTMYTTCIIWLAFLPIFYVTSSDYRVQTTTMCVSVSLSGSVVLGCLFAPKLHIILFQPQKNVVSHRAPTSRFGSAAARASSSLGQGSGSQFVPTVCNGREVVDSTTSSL

[10] = tested on: Rattus norvegicus; assay: Efficacy in ip dosed rat skin incision model after 30 mins; type: functional; conditions: 0.5 h
[11] = tested on: Rattus norvegicus; assay: Activity in ip dosed rat Rotarod model; type: functional
[12] = target: Metabotropic glutamate receptor 7 (Homo sapiens, UniProt Q14831); assay: Antagonist activity at human mGluR7 expressed in 1321N1 cells; type: functional, cell-based
Chain of Metabotropic glutamate receptor 7 (Q14831 whole entry): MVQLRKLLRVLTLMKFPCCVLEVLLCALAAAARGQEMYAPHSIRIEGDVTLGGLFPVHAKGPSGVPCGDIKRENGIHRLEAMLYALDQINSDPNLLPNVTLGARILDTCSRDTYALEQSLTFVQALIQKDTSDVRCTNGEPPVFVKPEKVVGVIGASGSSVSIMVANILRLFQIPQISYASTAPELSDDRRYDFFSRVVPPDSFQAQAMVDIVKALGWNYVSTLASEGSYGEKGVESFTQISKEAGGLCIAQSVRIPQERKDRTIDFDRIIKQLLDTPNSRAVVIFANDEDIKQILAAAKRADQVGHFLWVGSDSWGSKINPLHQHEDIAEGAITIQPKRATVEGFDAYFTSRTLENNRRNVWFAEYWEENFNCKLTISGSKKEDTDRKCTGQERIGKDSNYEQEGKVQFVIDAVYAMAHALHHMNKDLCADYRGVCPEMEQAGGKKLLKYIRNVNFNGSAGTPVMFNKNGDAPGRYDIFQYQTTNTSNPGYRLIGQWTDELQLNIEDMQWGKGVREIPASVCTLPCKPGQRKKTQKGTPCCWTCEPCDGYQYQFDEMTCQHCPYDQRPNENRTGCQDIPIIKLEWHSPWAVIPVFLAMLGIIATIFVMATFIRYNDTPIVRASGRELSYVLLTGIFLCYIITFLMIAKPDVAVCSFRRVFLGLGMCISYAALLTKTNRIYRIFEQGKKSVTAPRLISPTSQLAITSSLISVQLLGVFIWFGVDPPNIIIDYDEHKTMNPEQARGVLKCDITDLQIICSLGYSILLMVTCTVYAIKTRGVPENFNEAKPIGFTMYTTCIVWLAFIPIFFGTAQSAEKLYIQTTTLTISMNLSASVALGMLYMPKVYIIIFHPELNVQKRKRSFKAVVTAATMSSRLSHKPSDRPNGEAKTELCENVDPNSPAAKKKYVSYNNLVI

[13] = tested on: Rattus norvegicus; assay: Efficacy in ip dosed rat osteoarthritic pain model after 30 mins; type: functional; conditions: 0.5 h
[14] = tested on: Rattus norvegicus; assay: Efficacy in ip dosed rat Carrageenan model after 30 mins; type: functional; conditions: 0.5 h
[15] = tested on: Rattus norvegicus; assay: Activity in ip dosed rat locomotor model; type: functional
[16] = tested on: Rattus norvegicus; assay: Efficacy in ip dosed rat formalin model after 30 mins; type: functional; conditions: 0.5 h
[17] = tested on: Rattus norvegicus; assay: Efficacy in ip dosed rat CFA model after 30 mins; type: functional; conditions: 0.5 h

Chain of Metabotropic glutamate receptor 5 (P31424 whole entry): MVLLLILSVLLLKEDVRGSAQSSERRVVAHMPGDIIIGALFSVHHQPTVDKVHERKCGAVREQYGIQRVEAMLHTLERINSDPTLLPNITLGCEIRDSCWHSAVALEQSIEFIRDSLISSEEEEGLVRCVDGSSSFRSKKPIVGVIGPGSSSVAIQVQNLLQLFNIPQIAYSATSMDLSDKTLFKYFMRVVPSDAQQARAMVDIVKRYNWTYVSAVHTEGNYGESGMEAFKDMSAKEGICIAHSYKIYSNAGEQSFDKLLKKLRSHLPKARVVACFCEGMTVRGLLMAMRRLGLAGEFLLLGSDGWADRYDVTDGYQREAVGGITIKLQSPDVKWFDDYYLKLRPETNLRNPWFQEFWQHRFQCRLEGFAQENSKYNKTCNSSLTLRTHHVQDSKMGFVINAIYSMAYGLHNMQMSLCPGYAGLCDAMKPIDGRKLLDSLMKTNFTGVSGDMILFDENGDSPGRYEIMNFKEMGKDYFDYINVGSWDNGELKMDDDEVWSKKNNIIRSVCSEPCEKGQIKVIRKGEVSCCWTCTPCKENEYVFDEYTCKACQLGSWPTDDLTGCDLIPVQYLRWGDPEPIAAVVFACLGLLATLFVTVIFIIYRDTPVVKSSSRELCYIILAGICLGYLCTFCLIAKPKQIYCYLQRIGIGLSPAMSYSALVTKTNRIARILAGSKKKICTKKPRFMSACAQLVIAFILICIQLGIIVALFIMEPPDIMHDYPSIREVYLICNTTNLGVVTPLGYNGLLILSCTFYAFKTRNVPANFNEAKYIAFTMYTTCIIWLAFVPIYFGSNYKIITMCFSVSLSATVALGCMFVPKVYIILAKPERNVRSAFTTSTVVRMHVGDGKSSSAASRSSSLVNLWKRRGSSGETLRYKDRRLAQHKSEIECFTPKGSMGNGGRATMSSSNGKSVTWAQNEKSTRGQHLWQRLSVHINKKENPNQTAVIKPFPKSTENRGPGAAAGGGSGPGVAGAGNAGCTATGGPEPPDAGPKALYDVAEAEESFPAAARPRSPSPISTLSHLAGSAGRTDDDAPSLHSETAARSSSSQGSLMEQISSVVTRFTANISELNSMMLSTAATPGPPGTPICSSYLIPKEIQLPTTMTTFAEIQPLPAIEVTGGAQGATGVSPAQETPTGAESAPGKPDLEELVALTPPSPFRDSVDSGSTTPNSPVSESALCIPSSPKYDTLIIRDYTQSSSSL

Row | SMILES | pIC50 [1] | pIC50 [2] | Efficacy [3] | ED50 [4] | Activity [5] | Activity [6] | Activity [7] | pIC50 [8] | pIC50 [9] | ED50 [10] | ED50 [11] | pIC50 [12] | ED50 [13] | ED50 [14] | ED50 [15] | ED50 [16] | ED50 [17]
1 | CCc1ccc(-n2cnc3c(sc4nccc(N(C)CCc5ccccn5)c43)c2=O)cc1 | < 5.00 | 7.28 | 11% | – | – | – | – | – | – | – | – | – | – | – | – | – | –
2 | Cc1ccc(-n2cnc3c(sc4cncc(N(C)C)c43)c2=O)cc1F | < 5.00 | 7.68 | 72% | 55 µmol/kg | 125 ng/g | 99.9% | 0.13 ng/g | – | – | – | – | – | – | – | – | – | –
3 | CCc1ccc(-n2cnc3c(sc4nccc(N(C)C)c43)c2=O)cc1 | 5.88 | 8.30 | 41% | > 100 µmol/kg | 1180 ng/g | 97.8% | 25.5 ng/g | < 5.00 | < 5.00 | 47 µmol/kg | > 300 µmol/kg | < 5.00 | 29 µmol/kg | 11 µmol/kg | > 100 µmol/kg | 19 µmol/kg | 15 µmol/kg
4 | C[N+](C)([O-])c1ccnc2sc3c(=O)n(N4CCCCCC4)cnc3c12 | < 5.00 | 7.48 | 12% | – | – | – | – | – | – | – | – | – | – | – | – | – | –
5 | CN(C)c1ccnc2sc3c(=O)n(N4CCCCCC4)cnc3c12 | < 5.00 | 9.00 | 100% | 22 µmol/kg | 851 ng/g | – | – | – | – | – | – | – | – | – | – | – | –
